Measured values as given in the supplement of paper PMC10307832.

What was measured:
Assay in all cases: relative viability (nuclei count vs DMSO), 5 days (fraction); higher = more cells survive
A-427 = tested on: A-427
Outline: (§1)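 Medians of duplicate plates are given as relative viability. That measure is the nuclei count in treated wells divided by the count in vehicle wells. Counts were taken on 4× images of lung cancer cell lines in 1536-well plates, 5 days after pin-tool dosing the day after seeding with one drug alone or a fixed anchor-drug dose plus five library-drug doses (not always all listed) in √10 steps.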

ABC-1 = tested on: ABC-1
Outline: as §1

EMC-BAC-2 = tested on: EMC-BAC-2
Outline: as §1

HARA = tested on: HARA
Outline: as §1

HOP-62 = tested on: HOP-62
Outline: as §1

LK-2 = tested on: LK-2
Outline: as §1

LXF-289 = tested on: LXF-289
Outline: as §1

NCI-H1792 = tested on: NCI-H1792
Outline: as §1

NCI-H1944 = tested on: NCI-H1944
Outline: as §1

NCI-H1993 = tested on: NCI-H1993
Outline: as §1

NCI-H2009 = tested on: NCI-H2009
Outline: as §1

NCI-H2170 = tested on: NCI-H2170
Outline: as §1

NCI-H2228 = tested on: NCI-H2228
Outline: as §1

NCI-H3122 = tested on: NCI-H3122
Outline: as §1

NCI-H322M = tested on: NCI-H322M
Outline: as §1

NCI-H522 = tested on: NCI-H522
Outline: as §1

NCI-H596 = tested on: NCI-H596
Outline: as §1

NCI-H727 = tested on: NCI-H727
Outline: as §1

PC-3 [JPC-3] = tested on: PC-3 [JPC-3]
Outline: as §1

SK-MES-1 = tested on: SK-MES-1
Outline: as §1

SW 1573 = tested on: SW 1573
Outline: as §1

SW 900 = tested on: SW 900
Outline: as §1

With `CCN(CC)CCCCNc1ncc2cc(-c3cc(OC)cc(OC)c3)c(NC(=O)NC(C)(C)C)nc2n1` + O=C(c1cc(Cc2n[nH]c(=O)c3ccccc23)ccc1F)N1CCN(C(=O)C2CC2)CC1 [Olaparib] (partner 8 µM) the relative viability (A-427; first compound 0.01 µM) was 0.781, the relative viability (A-427; first compound 0.03162 µM) was 0.746 and the relative viability (A-427; first compound 0.1 µM) was 0.838. It also gave a relative viability (A-427; first compound 0.3162 µM) of 0.816, a relative viability (A-427; first compound 1 µM) of 0.685 and a relative viability (ABC-1; first compound 0.03162 µM) of 0.754. The relative viability (ABC-1; first compound 0.1 µM) was 1.04, the relative viability (ABC-1; first compound 0.3162 µM) was 0.93 and the relative viability (ABC-1; first compound 1 µM) was 1.01. It also gave a relative viability (EMC-BAC-2; first compound 0.03162 µM) of 0.485, a relative viability (EMC-BAC-2; first compound 0.1 µM) of 0.56 and a relative viability (EMC-BAC-2; first compound 0.3162 µM) of 0.507. The relative viability (EMC-BAC-2; first compound 1 µM) was 0.525, the relative viability (HARA; first compound 0.01 µM) was 0.697 and the relative viability (HARA; first compound 0.03162 µM) was 0.62. It also gave a relative viability (HARA; first compound 0.1 µM) of 0.561, a relative viability (HARA; first compound 0.3162 µM) of 0.811 and a relative viability (HARA; first compound 1 µM) of 0.443. For the same compound, the relative viability (HOP-62; first compound 0.01 µM) was 0.608, the relative viability (HOP-62; first compound 0.03162 µM) was 0.523 and the relative viability (HOP-62; first compound 0.1 µM) was 0.416. The relative viability (HOP-62; first compound 0.3162 µM) was 0.823, the relative viability (HOP-62; first compound 1 µM) was 0.383 and the relative viability (LK-2; first compound 0.01 µM) was 0.634. For the same compound, the relative viability (LK-2; first compound 0.03162 µM) was 0.547, the relative viability (LK-2; first compound 0.1 µM) was 0.714 and the relative viability (LK-2; first compound 0.3162 µM) was 0.457. The relative viability (LK-2; first compound 1 µM) was 0.226, the relative viability (LXF-289; first compound 0.01 µM) was 1.14 and the relative viability (LXF-289; first compound 0.03162 µM) was 1.11. It also gave a relative viability (LXF-289; first compound 0.1 µM) of 1.25, a relative viability (LXF-289; first compound 0.3162 µM) of 1.1 and a relative viability (LXF-289; first compound 1 µM) of 1.08. The relative viability (NCI-H1792; first compound 0.01 µM) was 0.547, the relative viability (NCI-H1792; first compound 0.03162 µM) was 0.475 and the relative viability (NCI-H1792; first compound 0.1 µM) was 0.668. For the same compound, the relative viability (NCI-H1792; first compound 0.3162 µM) was 0.77, the relative viability (NCI-H1792; first compound 1 µM) was 0.317 and the relative viability (NCI-H1944; first compound 0.01 µM) was 0.363. It also gave a relative viability (NCI-H1944; first compound 0.03162 µM) of 0.415, a relative viability (NCI-H1944; first compound 0.1 µM) of 0.474 and a relative viability (NCI-H1944; first compound 0.3162 µM) of 0.428. For the same compound, the relative viability (NCI-H1944; first compound 1 µM) was 0.394, the relative viability (NCI-H1993; first compound 0.01 µM) was 1.01 and the relative viability (NCI-H1993; first compound 0.03162 µM) was 1.01. It also gave a relative viability (NCI-H1993; first compound 0.1 µM) of 1.14, a relative viability (NCI-H1993; first compound 0.3162 µM) of 1.26 and a relative viability (NCI-H1993; first compound 1 µM) of 0.99. For the same compound, the relative viability (NCI-H2009; first compound 0.01 µM) was 0.828, the relative viability (NCI-H2009; first compound 0.03162 µM) was 0.696 and the relative viability (NCI-H2009; first compound 0.1 µM) was 0.699. It also gave a relative viability (NCI-H2009; first compound 0.3162 µM) of 0.75, a relative viability (NCI-H2009; first compound 1 µM) of 0.7 and a relative viability (NCI-H2170; first compound 0.01 µM) of 0.583. For the same compound, the relative viability (NCI-H2170; first compound 0.03162 µM) was 0.559, the relative viability (NCI-H2170; first compound 0.1 µM) was 0.655 and the relative viability (NCI-H2170; first compound 0.3162 µM) was 0.676. For the same compound, the relative viability (NCI-H2170; first compound 1 µM) was 0.732, the relative viability (NCI-H2228; first compound 0.01 µM) was 0.799 and the relative viability (NCI-H2228; first compound 0.03162 µM) was 0.8. It also gave a relative viability (NCI-H2228; first compound 0.1 µM) of 0.824, a relative viability (NCI-H2228; first compound 0.3162 µM) of 0.547 and a relative viability (NCI-H2228; first compound 1 µM) of 0.571. It also gave a relative viability (NCI-H3122; first compound 0.01 µM) of 0.642, a relative viability (NCI-H3122; first compound 0.03162 µM) of 0.69 and a relative viability (NCI-H3122; first compound 0.1 µM) of 0.68. For the same compound, the relative viability (NCI-H3122; first compound 0.3162 µM) was 0.647, the relative viability (NCI-H3122; first compound 1 µM) was 0.71 and the relative viability (NCI-H322M; first compound 0.01 µM) was 0.784. For the same compound, the relative viability (NCI-H322M; first compound 0.03162 µM) was 0.638, the relative viability (NCI-H322M; first compound 0.1 µM) was 0.745 and the relative viability (NCI-H322M; first compound 0.3162 µM) was 0.82. The relative viability (NCI-H322M; first compound 1 µM) was 0.76, the relative viability (NCI-H522; first compound 0.01 µM) was 0.687 and the relative viability (NCI-H522; first compound 0.03162 µM) was 0.544. It also gave a relative viability (NCI-H522; first compound 0.1 µM) of 0.708, a relative viability (NCI-H522; first compound 0.3162 µM) of 0.85 and a relative viability (NCI-H522; first compound 1 µM) of 0.663. It also gave a relative viability (NCI-H596; first compound 0.01 µM) of 0.649, a relative viability (NCI-H596; first compound 0.03162 µM) of 0.727 and a relative viability (NCI-H596; first compound 0.1 µM) of 0.635. The relative viability (NCI-H596; first compound 0.3162 µM) was 0.723, the relative viability (NCI-H596; first compound 1 µM) was 0.563 and the relative viability (NCI-H727; first compound 0.01 µM) was 0.674. The relative viability (NCI-H727; first compound 0.03162 µM) was 0.504, the relative viability (NCI-H727; first compound 0.1 µM) was 0.671 and the relative viability (NCI-H727; first compound 0.3162 µM) was 0.585. It also gave a relative viability (NCI-H727; first compound 1 µM) of 0.741, a relative viability (PC-3 [JPC-3]; first compound 0.03162 µM) of 1.08 and a relative viability (PC-3 [JPC-3]; first compound 0.1 µM) of 1.29. It also gave a relative viability (PC-3 [JPC-3]; first compound 0.3162 µM) of 1.19, a relative viability (PC-3 [JPC-3]; first compound 1 µM) of 1.07 and a relative viability (SK-MES-1; first compound 0.01 µM) of 0.913. For the same compound, the relative viability (SK-MES-1; first compound 0.03162 µM) was 0.752, the relative viability (SK-MES-1; first compound 0.1 µM) was 0.863 and the relative viability (SK-MES-1; first compound 0.3162 µM) was 0.735. It also gave a relative viability (SK-MES-1; first compound 1 µM) of 0.727, a relative viability (SW 1573; first compound 0.01 µM) of 0.513 and a relative viability (SW 1573; first compound 0.03162 µM) of 0.551. It also gave a relative viability (SW 1573; first compound 0.1 µM) of 0.613, a relative viability (SW 1573; first compound 0.3162 µM) of 0.522 and a relative viability (SW 1573; first compound 1 µM) of 0.421. For the same compound, the relative viability (SW 900; first compound 0.01 µM) was 0.834, the relative viability (SW 900; first compound 0.03162 µM) was 0.901 and the relative viability (SW 900; first compound 0.1 µM) was 0.839. It also gave a relative viability (SW 900; first compound 0.3162 µM) of 0.793 and a relative viability (SW 900; first compound 1 µM) of 0.592.
